Test results reported in BindingDB's records for PubMed 10991999 (Cocensys, 2000).

Assays:
[1] = biological target: Gamma-aminobutyric acid receptor subunit alpha-4 (Rattus norvegicus, UniProt P28471)
[2] = biological target: Gamma-aminobutyric acid receptor subunit alpha-1 (Rattus norvegicus, UniProt P62813)
[3] = biological target: Gamma-aminobutyric acid receptor subunit alpha-2 (Rattus norvegicus, UniProt P23576)
[4] = biological target: Gamma-aminobutyric acid receptor subunit alpha-3 (Rattus norvegicus, UniProt P20236)
[5] = biological target: Gamma-aminobutyric acid receptor subunit alpha-5 (Rattus norvegicus, UniProt P19969)
[6] = biological target: Gamma-aminobutyric acid receptor subunit alpha-6 (Rattus norvegicus, UniProt P30191)
Sequence of Gamma-aminobutyric acid receptor subunit alpha-6 (P30191 whole entry): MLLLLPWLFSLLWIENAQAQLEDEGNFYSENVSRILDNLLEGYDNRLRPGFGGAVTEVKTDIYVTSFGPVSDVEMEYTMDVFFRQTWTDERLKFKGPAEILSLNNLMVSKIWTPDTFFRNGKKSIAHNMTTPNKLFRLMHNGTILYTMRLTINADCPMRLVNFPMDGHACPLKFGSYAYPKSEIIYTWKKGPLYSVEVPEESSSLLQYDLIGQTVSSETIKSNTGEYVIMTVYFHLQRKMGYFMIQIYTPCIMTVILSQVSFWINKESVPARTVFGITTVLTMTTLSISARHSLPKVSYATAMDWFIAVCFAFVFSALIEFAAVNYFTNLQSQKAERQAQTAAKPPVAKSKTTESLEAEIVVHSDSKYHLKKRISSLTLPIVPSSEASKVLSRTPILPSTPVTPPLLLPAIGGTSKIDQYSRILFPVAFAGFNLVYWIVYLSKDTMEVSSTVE

Sequence of Gamma-aminobutyric acid receptor subunit alpha-5 (P19969 whole entry): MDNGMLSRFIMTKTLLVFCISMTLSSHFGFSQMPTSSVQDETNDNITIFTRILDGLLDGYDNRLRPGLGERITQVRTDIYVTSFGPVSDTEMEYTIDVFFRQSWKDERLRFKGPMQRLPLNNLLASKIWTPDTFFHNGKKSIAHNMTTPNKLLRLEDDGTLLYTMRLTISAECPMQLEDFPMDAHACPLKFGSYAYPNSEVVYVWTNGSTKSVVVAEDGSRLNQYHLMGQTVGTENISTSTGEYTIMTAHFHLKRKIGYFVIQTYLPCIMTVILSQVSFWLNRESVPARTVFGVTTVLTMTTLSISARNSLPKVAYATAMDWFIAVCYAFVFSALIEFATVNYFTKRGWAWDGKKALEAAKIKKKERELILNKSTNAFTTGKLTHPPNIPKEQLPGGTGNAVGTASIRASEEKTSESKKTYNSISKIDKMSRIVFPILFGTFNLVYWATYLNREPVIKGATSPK
Sequence of Gamma-aminobutyric acid receptor subunit alpha-2 (P23576 whole entry): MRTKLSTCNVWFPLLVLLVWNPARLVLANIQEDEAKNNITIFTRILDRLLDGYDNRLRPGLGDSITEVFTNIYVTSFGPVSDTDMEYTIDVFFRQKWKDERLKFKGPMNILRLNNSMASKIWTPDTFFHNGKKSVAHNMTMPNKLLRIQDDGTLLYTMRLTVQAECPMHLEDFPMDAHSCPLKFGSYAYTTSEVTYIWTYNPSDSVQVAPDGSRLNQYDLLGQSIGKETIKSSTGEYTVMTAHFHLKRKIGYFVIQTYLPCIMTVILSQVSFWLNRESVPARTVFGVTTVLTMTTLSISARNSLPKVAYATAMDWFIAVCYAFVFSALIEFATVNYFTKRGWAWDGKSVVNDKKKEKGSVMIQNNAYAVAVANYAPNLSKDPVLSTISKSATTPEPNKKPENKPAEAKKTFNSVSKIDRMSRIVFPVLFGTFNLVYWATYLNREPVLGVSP
Sequence of Gamma-aminobutyric acid receptor subunit alpha-1 (P62813 whole entry): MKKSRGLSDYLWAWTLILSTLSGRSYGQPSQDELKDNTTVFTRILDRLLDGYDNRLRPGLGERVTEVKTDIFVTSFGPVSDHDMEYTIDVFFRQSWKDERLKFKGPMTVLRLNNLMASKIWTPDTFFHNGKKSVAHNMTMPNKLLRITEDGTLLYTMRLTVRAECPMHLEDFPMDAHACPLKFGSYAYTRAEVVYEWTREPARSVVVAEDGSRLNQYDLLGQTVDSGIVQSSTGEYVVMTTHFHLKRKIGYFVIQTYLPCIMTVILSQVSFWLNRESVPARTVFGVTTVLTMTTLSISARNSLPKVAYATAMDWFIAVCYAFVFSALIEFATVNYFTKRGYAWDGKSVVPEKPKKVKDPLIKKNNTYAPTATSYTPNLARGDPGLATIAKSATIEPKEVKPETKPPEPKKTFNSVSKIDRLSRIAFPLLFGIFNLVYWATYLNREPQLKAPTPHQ
Sequence of Gamma-aminobutyric acid receptor subunit alpha-3 (P20236 whole entry I342M/K409L): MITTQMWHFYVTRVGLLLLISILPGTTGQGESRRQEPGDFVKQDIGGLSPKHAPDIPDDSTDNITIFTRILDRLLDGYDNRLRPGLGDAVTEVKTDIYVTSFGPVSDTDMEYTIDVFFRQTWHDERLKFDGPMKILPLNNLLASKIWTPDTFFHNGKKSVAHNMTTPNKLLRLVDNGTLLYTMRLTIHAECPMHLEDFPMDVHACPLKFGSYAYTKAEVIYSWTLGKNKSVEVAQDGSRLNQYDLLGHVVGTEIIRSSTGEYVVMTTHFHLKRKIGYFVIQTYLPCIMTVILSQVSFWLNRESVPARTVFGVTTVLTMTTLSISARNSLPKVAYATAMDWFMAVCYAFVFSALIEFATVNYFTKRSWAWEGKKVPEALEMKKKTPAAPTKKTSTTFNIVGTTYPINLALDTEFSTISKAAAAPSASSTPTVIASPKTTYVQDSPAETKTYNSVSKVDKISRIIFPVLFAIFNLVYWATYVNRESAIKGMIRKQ
Sequence of Gamma-aminobutyric acid receptor subunit alpha-4 (P28471 whole entry): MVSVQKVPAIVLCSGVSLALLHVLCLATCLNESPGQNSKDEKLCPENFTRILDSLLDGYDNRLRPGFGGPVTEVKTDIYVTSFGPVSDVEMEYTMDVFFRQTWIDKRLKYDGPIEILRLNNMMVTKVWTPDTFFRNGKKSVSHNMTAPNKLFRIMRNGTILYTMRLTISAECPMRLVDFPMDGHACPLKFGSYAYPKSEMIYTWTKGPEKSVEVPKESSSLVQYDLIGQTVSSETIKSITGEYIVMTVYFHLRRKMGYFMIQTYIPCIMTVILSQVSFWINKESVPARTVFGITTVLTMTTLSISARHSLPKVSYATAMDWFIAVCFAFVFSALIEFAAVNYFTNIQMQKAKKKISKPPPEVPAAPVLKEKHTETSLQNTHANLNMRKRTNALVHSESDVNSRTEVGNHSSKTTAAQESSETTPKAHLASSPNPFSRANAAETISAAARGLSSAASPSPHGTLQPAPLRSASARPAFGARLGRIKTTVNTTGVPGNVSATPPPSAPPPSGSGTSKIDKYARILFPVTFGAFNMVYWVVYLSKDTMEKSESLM

Compound	Ki [1] [nM]	Ki [2] [nM]	Ki [3] [nM]	Ki [4] [nM]	Ki [5] [nM]	Ki [6] [nM]
CC(=O)C1CCC2C3CC[C@H]4C[C@H](O)CC[C@]4(C)C3CC[C@]12C (stereo partly specified) [Allopregnanolone]	1900	17.5	41	20	21	
C[C@]12CC[C@H]3[C@@H](CC[C@@H]4C[C@@](O)(C(F)(F)F)CC[C@@H]43)[C@@H]1CC[C@@H]2C(=O)CO [GMA-839]	2300	200	200	96	210	2000
